Results as given in patent US4500511A, “Antiinflammatory and analgesic gel” (Grelan Pharmaceutical Co., Ltd., priority 1982, dated 1985).

Test system: vascular permeability
Experiment: Suppression of increased vascular permeability (λ-carrageenin, dye leakage) in guinea pigs
Assay type: in vivo, Hartley strain albino guinea pigs
Settings: oral, 2.0 mg/kg; for Suppression rate: *p < 0.05
Protocol: The hair on the back of Hartley strain albino guinea pigs (male; weighing 235 to 270 g; in groups of 7 animals) was removed with an electric hair clipper and an electric razor, circles, 2.5 cm in diameter (4.91 cm^2 in area), were drawn symmetrically on both sides of the medium line, and 50 mg of each test external preparation was applied to the area of each circle. Three hours after application, 0.1 ml of 0.1% λ-carrageeninsolution was injected intradermally into the center of each circle, followed by injection of 0.5 ml/100 g of body weight of 0.5% Pontamine sky blue solution into the vein of the penis. Three hours after injection, each animal was sacrificed by decapitation, exsanguinated and flayed, and the area of dye leakage (major axis x minor axis) on the inner side of the skin was measured with slide calipers.
The external preparations used were preparations (A), (D), (E) and (H) containing of 0.1%, 0.25%, 0.5% and 1% of clidanac, respectively, and preparations (f), (g), (h) and (i) containing 0.1%, 0.25%, 0.5% and 1% of indomethacin, respectively. In the control group, any preparation was not administered but massage alone was performed.
For further comparison, oral preparations respectively containing clidanac and indomethacin were prepared by the procedure of Reference Example 4 and orally administered in a clidanac dose of 2 mg/kg and in an indomethacin dose of 2 mg/kg, respectively, and the animals were treated in the same manner as mentioned above.
The rate of suppression was calculated using the follwoing formula: [formula] where C is the area of dye leakage for the control group and T is the area of dye leakage for the drug-treated group.

O=C(O)C1CCc2cc(C3CCCCC3)c(Cl)cc21 (stereo not shown) [Clidanac, 6-chloro-5-cyclohexylindane-1-carboxylic acid] was tested, and the “Area of dye leakage” value was 193.8 ± 12.1 mm^2 and the Suppression rate was 17.4%.

COc1ccc2c(c1)c(CC(=O)O)c(C)n2C(=O)c1ccc(Cl)cc1 [Indomethacin] was tested, and the “Area of dye leakage” value was 195.7 ± 13.6 mm^2 and the Suppression rate was 16.6%.
